pIC50: −log10 of the molar value.
Biological target: human FXa (Homo sapiens, UniProt P00742)
Assay: Human activated coagulation factor X (FXa) inhibiting effect
Format: biochemical
Settings: concentration at which the FXa effect was inhibited by 50%; substrate S-2765, 37° C., absorbance at 405 nm
Procedure: (1) Human Activated Coagulation Factor X (FXa) Inhibiting Effect
Method: A cuvette was charged with 225 μl of 0.05 M tris buffer (pH 8.3) containing 0.145 M sodium chloride and 2 mM calcium chloride, 5 μl of a sample (test compound dissolved in dimethyl sulfoxide) and 10 μl of human FXa (0.3 unit/ml), which were reacted at 37° C. for 10 minutes and then combined with 10 μl of a substrate (3 mM, S-2765) and further reacted at 37° C. for 10 minutes. hen the reaction was terminated by adding 25 μl of 50% aqueous acetic acid, and the change in the absorbance at 405 nm was determined using a spectrophotometer to calculate the concentration at which the FXa effect was inhibited by 50% (IC50)

Chain of human FXa (P00742 235-488 limits assumed): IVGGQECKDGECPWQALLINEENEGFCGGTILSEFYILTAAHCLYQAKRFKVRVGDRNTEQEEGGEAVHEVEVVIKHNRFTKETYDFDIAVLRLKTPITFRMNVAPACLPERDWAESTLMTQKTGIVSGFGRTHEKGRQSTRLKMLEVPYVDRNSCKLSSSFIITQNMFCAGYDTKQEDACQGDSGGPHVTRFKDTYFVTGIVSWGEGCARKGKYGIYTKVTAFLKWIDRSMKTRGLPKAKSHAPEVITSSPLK
Chain of human FXa (P00742 41-179 partner limits assumed): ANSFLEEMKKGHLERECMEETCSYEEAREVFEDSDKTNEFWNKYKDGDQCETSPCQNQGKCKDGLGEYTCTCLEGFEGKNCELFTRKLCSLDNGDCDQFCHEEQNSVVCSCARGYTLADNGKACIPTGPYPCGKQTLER

pIC50: 8.24
SMILES: O=C1CN(S(=O)(=O)C2=Cc3ccc(Cl)cc3OC2)CCN1NC1CCN(c2ccncc2)CC1 [Example 6]

Reference: patent publication US6723722B1, “Acylhydrazine derivatives, their production and use” (Takeda Chemical Industries, Ltd., priority 1999, dated 2004)
